Test system: individuals with essential tremor
Experiment: Phase 2 study, Compound 1 60 mg once daily for 28 days: TETRAS performance subscale part 4/6/7/8 total score
Type: in vivo, human
Conditions: Full Analysis Set
Method: 4) Upper limb tremor: Tremor is assessed during three maneuvers: forward horizontal reach posture, lateral “wing beating” posture and finger-nose-finger testing. Each upper limb is assessed and scored individually. The forward horizontal reach posture is held for 5 seconds. The lateral wing beating posture is held for 20 seconds. The finger-nose-finger movement is executed three times. Amplitude assessment should be estimated using the maximally displaced point of the hand at the point of greatest displacement along any single plane. For example, the amplitude of a pure supination-pronation tremor, pivoting around the wrist would be assessed at either the thumb or fifth digit.
The lines of the spiral should be approximately 1.3 cm (0.5 inch) apart. Then ask the subject to copy the spiral. Test and score each hand separately. Use a ballpoint pen. The pen should be held such that no part of the limb touches the table. Secure the paper on the table in a location that is suitable for the patient's style of drawing. Score the tremor in the spiral, not the movement of the limb. Each limb is assessed and scored individually. 0=normal. 1=slight: tremor barely visible. 2=mild: obvious tremor. 3=moderate: portions of figure not recognizable. 4=severe: figure not recognizable.
7) Handwriting: Have patient write the standard sentence “This is a sample of my best handwriting” using the dominant hand only. Patients must write cursively (i.e., no printing). They cannot hold or stabilize their hand with the other hand. Use a ballpoint pen. Secure the paper on the table in a location that is suitable for the patient's style of writing. Score the tremor in the writing, not the movement of the limb. 0=normal. 1=slight: untidy due to tremor that is barely visible. 2=mild: legible, but with considerable tremor. 3=moderate: some words illegible. 4=severe: completely illegible.
8) Dot approximation task: The examiner makes a dot or X and instructs the subject to hold the tip of the pen “as close as possible to the dot (or center of an X) without touching it, (ideally approximately 1 mm) for 10 seconds.” Each hand is scored separately. 0=no tremor. 1=tremor is barely visible. 1.5=tremor is visible, but less than 1 cm. 2=tremor is 1-<3 cm amplitude. 2.5=tremor is 3-<5 cm amplitude. 3=tremor is 5-<10 cm amplitude. 3.5=tremor is 10-<20 cm amplitude. 4=tremor is >20 cm amplitude.
Participants were 18 to 80 years of age, inclusive, diagnosed of ET of at least 3 years duration with scores of at least 1.5 for each of the six items that comprised the combined total upper limb TETRAS (total performance subscale part 4) with the total score for the dominant upper limb (the sum of the 3 items for either the right or left upper limb, whichever is dominant) being at least 5.5, at both Screening and predose on Day 1.
Participants were randomized to receive Compound 1 60 mg or placebo once daily in the morning on a 1:1 basis. If participants reported a TEAE considered by investigator to be related to Compound 1 and not tolerable, investigator might reduce the dose of Compound 1 from 60 mg in 15 mg decrements (i.e., 60 mg, to 45 mg, to 30 mg), as medically appropriate. If intolerable TEAEs persist at the 30 mg dose, Compound 1 was permanently stopped.
This study included a Screening Period of up to 28 days, a 29-day treatment period consisting of 28 days of dosing with the end of treatment visit intended to be on Day 29 at trough, and a 14-day follow-up period relative to final dose. Study patients were not taking other medications for essential tremor during the 28-day treatment period.
Similarly, an MMRM was be used for the analysis of the following variables: changes from baseline in TETRAS performance subscale part 4, 6, 7, and 8 combined score, and TETRAS ADL score. For each model, the comparison of interest was between Compound 1 tablets and matching placebo at the 15-day time point. […]

## COC[C@@]1(O)CC[C@H]2[C@@H](CC[C@@H]3[C@@H]2CC[C@]2(C)[C@@H](C(=O)Cn4nnc(C)n4)CC[C@@H]32)C1 [Compound 1]
Day 8
  LSMean difference vs placebo in change from baseline in TETRAS performance subscale part 4/6/7/8 total score: −1.22
  Model-based LSMean (SE) change from baseline in TETRAS performance subscale part 4/6/7/8 total score: −2.84 (0.579)
Day 15, 5 hr postdose
  LSMean difference vs placebo in change from baseline in TETRAS performance subscale part 4/6/7/8 total score: −1.03
  Model-based LSMean (SE) change from baseline in TETRAS performance subscale part 4/6/7/8 total score: −4.59 (0.840)
Day 15, 8 hr postdose
  LSMean difference vs placebo in change from baseline in TETRAS performance subscale part 4/6/7/8 total score: −0.23
  Model-based LSMean (SE) change from baseline in TETRAS performance subscale part 4/6/7/8 total score: −3.75 (0.755)
Day 15, predose
  LSMean difference vs placebo in change from baseline in TETRAS performance subscale part 4/6/7/8 total score: −0.55
  Model-based LSMean (SE) change from baseline in TETRAS performance subscale part 4/6/7/8 total score: −2.63 (0.671)
Day 22
  LSMean difference vs placebo in change from baseline in TETRAS performance subscale part 4/6/7/8 total score: −0.77
  Model-based LSMean (SE) change from baseline in TETRAS performance subscale part 4/6/7/8 total score: −2.93 (0.691)
Day 29
  LSMean difference vs placebo in change from baseline in TETRAS performance subscale part 4/6/7/8 total score: −0.59 (−2.45, 1.28)
  Model-based LSMean (SE) change from baseline in TETRAS performance subscale part 4/6/7/8 total score: −2.81 (0.699)
Day 29, listed as Cmpd 1
  LSMean difference vs placebo in change from baseline in TETRAS performance subscale part 4/6/7/8 total score: −0.59
Day 42
  LSMean difference vs placebo in change from baseline in TETRAS performance subscale part 4/6/7/8 total score: 1.96
  Model-based LSMean (SE) change from baseline in TETRAS performance subscale part 4/6/7/8 total score: −1.17 (0.673)

Reference: patent US20240238314A1, “TREATMENT OF ESSENTIAL TREMOR” (Sage Therapeutics, Inc., priority 2021, published 2024)
